Measurements published in patent US20180282331A1, “7-Oxo -6-(sulfooxy)- 1,6-diazabicyclo [3.2.1] octane containing compounds and their use in treatment of bacterial infections (changed by PCT to: 7-OXO -6-(SULFOOXY)- 1,6-DIAZABICYCLO [3.2.1] OCTANE CONTAINING COMPOUNDS AND THEIR USE IN TREATMENT OF BACTERIAL INFECTIONS” (WOCKHARDT LIMITED, priority 2015, published 2018).
Read-outs that look alike come from different tables or passages of the source.

What was measured:
Test in all cases: MIC, agar dilution (MHA), compound alone
Assay type in all cases: cell-based
[1] = tested on: E. coli 7 MP
Procedure: (§1) The biological activity of representative compounds according to the invention against various bacterial strains was investigated. The Minimum Inhibitory Concentration (MIC) determination for the combinations was carried out in Muller Hinton Agar (MHA) (BD, USA) according to Clinical and Laboratory Standards Institute (CLSI) recommendations, (Clinical and Laboratory Standards Institute (CLSI), Performance Standards for Antimicrobial Susceptibility Testing, 20th Informational Supplement, M 100-S20, Volume 30, No. 1, 2010). In short, the test strains were adjusted to deliver about 10^4 CFU per spot with a multipoint inoculator (Applied Quality Services, UK). The plates were poured with MHA containing doubling concentration range of representative compounds according to present invention. The plates were inoculated and were incubated at 35° C. for 18 hours. […] The Table 5 depicts the antibacterial activity profile of compounds according to present invention against various multidrug resistant bacterial strains.

[2] = tested on: E. coli M 50
Procedure: as §1

[3] = tested on: E. coli NCTC 13352
Procedure: as §1

[4] = tested on: E. coli NCTC 13353
Procedure: as §1

[5] = tested on: K. pneumoniae ATCC 700603
Procedure: as §1

[6] = tested on: K. pneumoniae H521
Procedure: as §1

[7] = tested on: K. pneumoniae H525
Procedure: as §1

[8] = Escherichia coli, E. coli 7 MP, compound alone, MHA, 35° C., 18 hours, read-out: MIC
[9] = Escherichia coli, M50, E. coli M 50, compound alone, MHA, 35° C., 18 hours, read-out: MIC
[10] = Escherichia coli, NCTC13352, E. coli NCTC 13352, compound alone, MHA, 35° C., 18 hours, read-out: MIC
[11] = Escherichia coli, NCTC13353, E. coli NCTC 13353, compound alone, MHA, 35° C., 18 hours, read-out: MIC
[12] = Klebsiella pneumoniae, ATCC700603, K. pneumoniae ATCC 700603, compound alone, MHA, 35° C., 18 hours, read-out: MIC
[13] = Klebsiella pneumoniae, K. pneumoniae H521, compound alone, MHA, 35° C., 18 hours, read-out: MIC
[14] = Klebsiella pneumoniae, K. pneumoniae H525, compound alone, MHA, 35° C., 18 hours, read-out: MIC

MIC [1, 8] [µg/mL] | MIC [2, 9] [µg/mL] | MIC [3, 10] [µg/mL] | MIC [4, 11] [µg/mL] | MIC [5, 12] [µg/mL] | MIC [6, 13] [µg/mL] | MIC [7, 14] [µg/mL] | Structure (SMILES) | other results
1 | 0.5 | 1 | 0.5 | > 32 | 4 | 0.5 | NCCCCc1nnnn1CC(=O)NNC(=O)[C@@H]1CC[C@@H]2CN1C(=O)N2OS(=O)(=O)O [Example 33] | 
4 | 1 | 1 | 1 | > 32 | 2 | 1 | O=C(Cn1ccnc1COC(=O)[C@@H]1CCCN1)NNC(=O)[C@@H]1CC[C@@H]2CN1C(=O)N2OS(=O)(=O)O [Example 34] | 
4 | 1 | 1 | 1 | > 32 | 2 | 2 | C[C@H](N)C(=O)OCc1nccn1CC(=O)NNC(=O)[C@@H]1CC[C@@H]2CN1C(=O)N2OS(=O)(=O)O [Example 35] | 
1 | 0.5 | 0.5 | 0.5 | > 32 | 1 | 2 | O=C(Cn1nnc(CCO)n1)NNC(=O)[C@@H]1CC[C@@H]2CN1C(=O)N2OS(=O)(=O)[O-].[Na+] [Example 39] | 
4 | 2 | 2 | 1 | > 32 | 4 | 2 | O=C(Cn1ccnc1CCO)NNC(=O)[C@@H]1CC[C@@H]2CN1C(=O)N2OS(=O)(=O)[O-].[Na+] [Example 40] | 
2 | 0.5 | 1 | 0.5 | > 32 | 2 | 1 | O=C(Cn1ccnc1CO)NNC(=O)[C@@H]1CC[C@@H]2CN1C(=O)N2OS(=O)(=O)[O-].[Na+] [Example 42] | 
> 32 | > 32 | > 32 | > 32 | > 32 | > 32 | > 32 | NCc1nnn(CCONC(=O)[C@@H]2CC[C@@H]3CN2C(=O)N3OS(=O)(=O)O)n1 [Example 44, (2S,5R)-N-{2-[5-(aminomethyl)-2H-tetrazol-2-yl]ethoxy}-7-oxo-6-(sulfooxy)-1,6-diazabicyclo[3.2.1]octane-2-carboxamide] | 
32 | 4 | 8 | 4 | > 32 | 4 | 4 | NCCc1nnn(CCONC(=O)[C@@H]2CC[C@@H]3CN2C(=O)N3OS(=O)(=O)O)n1 [Example 46] | 
32 | 8 | 8 | 8 | > 32 | > 32 | > 32 | O=C(NOCCn1ccnn1)[C@@H]1CC[C@@H]2CN1C(=O)N2OS(=O)(=O)O [Example 47] | 
> 32 | 8 | 16 | 8 | > 32 | > 32 | 32 | O=C(NOCCn1cncn1)[C@@H]1CC[C@@H]2CN1C(=O)N2OS(=O)(=O)O [Example 48] | 

Continued, compound first:

Structure (SMILES) | MIC [1, 8] [µg/mL] | MIC [2, 9] [µg/mL] | MIC [3, 10] [µg/mL] | MIC [4, 11] [µg/mL] | MIC [5, 12] [µg/mL] | MIC [6, 13] [µg/mL] | MIC [7, 14] [µg/mL] | other results
NC(=O)c1nnn(CC(=O)NNC(=O)[C@@H]2CC[C@@H]3CN2C(=O)N3OS(=O)(=O)[O-])n1.[Na+] [Example 16] | 2 | 1 | 1 | 1 | > 32 | 2 | 2 | 
NC(=O)c1nnnn1CC(=O)NNC(=O)[C@@H]1CC[C@@H]2CN1C(=O)N2OS(=O)(=O)[O-].[Na+] [Example 17] | 0.5 | 0.25 | 0.25 | 0.25 | > 32 | 1 | 1 | 
O=C(Cn1cccc1)NNC(=O)[C@@H]1CC[C@@H]2CN1C(=O)N2OS(=O)(=O)[O-].[Na+] [Example 18] | 1 | 0.5 | 0.5 | 0.25 | > 32 | 1 | 1 | 
C[C@@H](C(=O)NNC(=O)[C@@H]1CC[C@@H]2CN1C(=O)N2OS(=O)(=O)[O-])n1ccnc1.[Na+] [Example 20] | 1 | 0.5 | 0.5 | 0.5 | > 32 | 2 | 2 | 
CCOC(=O)c1nccn1CC(=O)NNC(=O)[C@@H]1CC[C@@H]2CN1C(=O)N2OS(=O)(=O)[O-].[Na+] [Example 21] | 4 | 2 | 2 | 2 | > 32 | 8 | 8 | 
Nc1nnnn1CC(=O)NNC(=O)[C@@H]1CC[C@@H]2CN1C(=O)N2OS(=O)(=O)O [Example 24, (2S,5R)-N′-[(5-amino-1H-tetrazol-1-yl)acetyl]-7-oxo-6-(sulfooxy)-1,6-diazabicyclo[3.2.1]octane-2-carbohydrazide] | 2 | 0.5 | 1 | 0.5 | > 32 | 2 | 2 | 
NCc1nnnn1CC(=O)NNC(=O)[C@@H]1CC[C@@H]2CN1C(=O)N2OS(=O)(=O)O [Example 25] | 2 | 0.5 | 1 | 1 | > 32 | 1 | 1 | 
NCc1nnn(CC(=O)NNC(=O)[C@@H]2CC[C@@H]3CN2C(=O)N3OS(=O)(=O)O)n1 [Example 26] | 1 | 0.5 | 0.5 | 0.5 | > 32 | 1 | 1 | 
Nc1ncn(CC(=O)NNC(=O)[C@@H]2CC[C@@H]3CN2C(=O)N3OS(=O)(=O)O)n1 [Example 27] | 2 | 1 | 1 | 1 | > 32 | 2 | 2 | 
NCCc1nnn(CC(=O)NNC(=O)[C@@H]2CC[C@@H]3CN2C(=O)N3OS(=O)(=O)O)n1 [Example 28] | 1 | 0.25 | 0.5 | 0.25 | > 32 | 0.5 | 0.5 | 
NCCCc1nnn(CC(=O)NNC(=O)[C@@H]2CC[C@@H]3CN2C(=O)N3OS(=O)(=O)O)n1 [Example 30] | 1 | 0.5 | 0.5 | 0.25 | > 32 | 0.5 | 0.5 | 
NCCCc1nnnn1CC(=O)NNC(=O)[C@@H]1CC[C@@H]2CN1C(=O)N2OS(=O)(=O)O [Example 31] | 1 | 0.5 | 0.5 | 0.5 | > 32 | 1 | 1 | 
NCCCCc1nnn(CC(=O)NNC(=O)[C@@H]2CC[C@@H]3CN2C(=O)N3OS(=O)(=O)O)n1 [Example 32] | 1 | 0.5 | 0.5 | 0.25 | > 32 | 0.5 | 0.5 | 
Nc1ccn(CC(=O)NNC(=O)[C@@H]2CC[C@@H]3CN2C(=O)N3OS(=O)(=O)[O-])c(=O)n1.[Na+] [Example 37] |  |  |  |  |  |  |  | MIC ([1]; Escherichia coli, 7MP, 18 h): 4 µg/mL; MIC ([2]; Escherichia coli, M50, 18 h): 1 µg/mL; MIC ([3]; Escherichia coli, NCTC13352, 18 h): 2 µg/mL; MIC ([4]; Escherichia coli, NCTC13353, 18 h): 1 µg/mL; MIC ([5]; Klebsiella pneumoniae, ATCC700603, 18 h): > 32 µg/mL; MIC ([6]; Klebsiella pneumoniae, H521, 18 h): 4 µg/mL; MIC ([7]; Klebsiella pneumoniae, H525, 18 h): 4 µg/mL
O=C(Cn1nnnc1CCO)NNC(=O)[C@@H]1CC[C@@H]2CN1C(=O)N2OS(=O)(=O)O.[Na] [Example 38, Sodium salt of (2S,5R)-N′-{[5-(2-hydroxyethyl)-1H-tetrazol-1-yl]acetyl}-7-oxo-6-(sulfooxy)-1,6-diazabicyclo[3.2.1]octane-2-carbohydrazide] |  |  |  |  |  |  |  | MIC ([1]; E. coli 7 MP, compound alone, MHA, 35° C., 18 hours): 1 µg/mL; MIC ([2]; E. coli M 50, compound alone, MHA, 35° C., 18 hours): 0.25 µg/mL; MIC ([3]; E. coli NCTC 13352, compound alone, MHA, 35° C., 18 hours): 0.25 µg/mL; MIC ([4]; E. coli NCTC 13353, compound alone, MHA, 35° C., 18 hours): 0.25 µg/mL; MIC ([5]; K. pneumoniae ATCC 700603, compound alone, MHA, 35° C., 18 hours): >32 µg/mL; MIC ([6]; K. pneumoniae H521, compound alone, MHA, 35° C., 18 hours): 0.5 µg/mL; MIC ([7]; K. pneumoniae H525, compound alone, MHA, 35° C., 18 hours): 0.5 µg/mL
